Values joined by “and” are separate entries in the source; they are usually repeats but may differ in a detail not shown here. Identical values can stand only once. Inconclusive results and toxic doses are left out. Rule as the data show it: active = T/C of 150% or more; inactive = T/C below 125%.
Test system: L1210 leukemia ip in BDF1 mice, survival T/C
Test: NCI In Vivo Anticancer Drug Screen. Data for tumor model L1210 Leukemia (intraperitoneal) in B6D2F1 (BDF1) mice
Details: endpoint: mean survival time, higher = longer survival
How it was run: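 Tumor cells were implanted, animals were treated, and survival was followed. The result divides the treated measurement by the vehicle-control measurement.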

[1] = dose: 200.0 mg/kg/injection, schedule: Q04DX002 (ip), vehicle: saline with Tween-80
[2] = dose: 400.0 mg/kg/injection, schedule: Q04DX002 (ip), vehicle: saline with Tween-80
[3] = dose: 100.0 mg/kg/injection, schedule: Q01DX009 (ip), vehicle: Klucel (hydroxypropylcellulose) (HPC)

Measured: T/C

CSc1ccc(NC(=O)Nc2ccc([N+](=O)[O-])cc2C)cc1
inactive: dose: 100.0 mg/kg/injection, schedule: Q04DX002 (ip), vehicle: saline with Tween-80 98 % of control | [1] 95 % of control | [2] 91 % of control

ClC1=C(Cl)C2(Cl)C3C4CC(C(I)C4I)C3C1(Cl)C2(Cl)Cl (stereo not given)
inactive: dose: 75.0 mg/kg/injection, schedule: Q01DX001 (ip), vehicle: other 98 % of control | dose: 150.0 mg/kg/injection, schedule: Q01DX001 (ip), vehicle: other 95 % of control

O=S(c1ccc(Cl)cc1)N(OCc1ccccc1)S(=O)c1ccc(Cl)cc1 (stereo not given)
inactive: dose: 50.0 mg/kg/injection, schedule: Q01DX001 (ip), vehicle: Klucel (hydroxypropylcellulose) (HPC) 107 % of control | dose: 100.0 mg/kg/injection, schedule: Q01DX001 (ip), vehicle: Klucel (hydroxypropylcellulose) (HPC) 100 % of control | dose: 200.0 mg/kg/injection, schedule: Q01DX001 (ip), vehicle: Klucel (hydroxypropylcellulose) (HPC) 100 % of control

CC/C=C(\C)CC(C)O (stereo not given)
inactive: [1] 90 % of control | [2] 90 % of control

COC(=O)C(CSC(c1ccc(N(C)C)cc1)c1ccc(N(C)C)cc1)NC(=O)OCc1ccccc1 (stereo not given)
inactive: dose: 75.0 mg/kg/injection, schedule: Q01DX001 (ip), vehicle: carboxymethylcellulose (CMC) 97 % of control | dose: 300.0 mg/kg/injection, schedule: Q01DX001 (ip), vehicle: carboxymethylcellulose (CMC) 94 % of control

CC(=O)CN
inactive: dose: 100.0 mg/kg/injection, schedule: Q01DX009 (ip), vehicle: saline 111 % of control | dose: 200.0 mg/kg/injection, schedule: Q01DX009 (ip), vehicle: saline 104 % of control | dose: 400.0 mg/kg/injection, schedule: Q01DX009 (ip), vehicle: saline 108 % of control

CCOC(=O)CNC(=O)Oc1ccc2c(C)cc(=O)oc2c1
inactive: dose: 25.0 mg/kg/injection, schedule: Q01DX009 (ip), vehicle: carboxymethylcellulose (CMC) 100 % of control and 106 % of control | dose: 50.0 mg/kg/injection, schedule: Q01DX009 (ip), vehicle: carboxymethylcellulose (CMC) 98 % of control and 100 % of control | dose: 100.0 mg/kg/injection, schedule: Q01DX009 (ip), vehicle: carboxymethylcellulose (CMC) 93 % of control and 97 % of control | dose: 100.0 mg/kg/injection, schedule: Q04DX002 (ip), vehicle: carboxymethylcellulose (CMC) 98 % of control and 102 % of control | dose: 100.0 mg/kg/injection, schedule: Q04DX003 (ip), vehicle: carboxymethylcellulose (CMC) 92 % of control and 90 % of control | dose: 200.0 mg/kg/injection, schedule: Q01DX009 (ip), vehicle: carboxymethylcellulose (CMC) 100 % of control | dose: 200.0 mg/kg/injection, schedule: Q04DX002 (ip), vehicle: carboxymethylcellulose (CMC) 93 % of control and 97 % of control | dose: 200.0 mg/kg/injection, schedule: Q04DX003 (ip), vehicle: carboxymethylcellulose (CMC) 92 % of control and 87 % of control | dose: 400.0 mg/kg/injection, schedule: Q04DX002 (ip), vehicle: carboxymethylcellulose (CMC) 104 % of control and 105 % of control | dose: 400.0 mg/kg/injection, schedule: Q04DX003 (ip), vehicle: carboxymethylcellulose (CMC) 94 % of control and 101 % of control

Cc1ccc(C(=O)C=O)c(C)c1
inactive: [3] 96 % of control | dose: 200.0 mg/kg/injection, schedule: Q01DX009 (ip), vehicle: Klucel (hydroxypropylcellulose) (HPC) 105 % of control | dose: 400.0 mg/kg/injection, schedule: Q01DX009 (ip), vehicle: Klucel (hydroxypropylcellulose) (HPC) 109 % of control

Cc1ccc2c(ccc[n+]2C)c1
inactive: dose: 75.0 mg/kg/injection, schedule: Q01DX001 (ip), vehicle: saline 103 % of control | dose: 150.0 mg/kg/injection, schedule: Q01DX001 (ip), vehicle: saline 106 % of control

COc1ccc(OC)c(NC(=O)c2cccc(N(CCO)CCO)c2)c1
inactive: dose: 100.0 mg/kg/injection, schedule: Q01DX001 (ip), vehicle: carboxymethylcellulose (CMC) 102 % of control | dose: 200.0 mg/kg/injection, schedule: Q01DX001 (ip), vehicle: carboxymethylcellulose (CMC) 94 % of control | dose: 400.0 mg/kg/injection, schedule: Q01DX001 (ip), vehicle: carboxymethylcellulose (CMC) 94 % of control

COc1ccc(C2=NC(=O)C(C)(C(C)=O)O2)cc1 (stereo not given)
inactive: dose: 100.0 mg/kg/injection, schedule: Q01DX001 (ip), vehicle: saline 93 % of control | dose: 200.0 mg/kg/injection, schedule: Q01DX001 (ip), vehicle: saline 90 % of control | dose: 400.0 mg/kg/injection, schedule: Q01DX001 (ip), vehicle: saline 90 % of control

CC(=O)C(=Cc1ccc(Cl)c(Cl)c1)C(C)=O
inactive: [3] 100 % of control | dose: 100.0 mg/kg/injection, schedule: Q04DX003 (ip), vehicle: Klucel (hydroxypropylcellulose) (HPC) 96 % of control | dose: 200.0 mg/kg/injection, schedule: Q04DX003 (ip), vehicle: Klucel (hydroxypropylcellulose) (HPC) 96 % of control | dose: 400.0 mg/kg/injection, schedule: Q04DX003 (ip), vehicle: Klucel (hydroxypropylcellulose) (HPC) 86 % of control
